We go through 19 compounds from patent publication US7285569B2, “Tricycles, their manufacture and use as pharmaceutical agents” (Hoff Hoffmann-La Roche Inc., priority 2004, dated 2007).

For one test, the target named is T1, Aurora A (Homo sapiens, UniProt O14965).
T1 construct: C-terminally Histidine4 (His4)-tagged Aurora A full-length protein
T1 sequence (O14965 1-403): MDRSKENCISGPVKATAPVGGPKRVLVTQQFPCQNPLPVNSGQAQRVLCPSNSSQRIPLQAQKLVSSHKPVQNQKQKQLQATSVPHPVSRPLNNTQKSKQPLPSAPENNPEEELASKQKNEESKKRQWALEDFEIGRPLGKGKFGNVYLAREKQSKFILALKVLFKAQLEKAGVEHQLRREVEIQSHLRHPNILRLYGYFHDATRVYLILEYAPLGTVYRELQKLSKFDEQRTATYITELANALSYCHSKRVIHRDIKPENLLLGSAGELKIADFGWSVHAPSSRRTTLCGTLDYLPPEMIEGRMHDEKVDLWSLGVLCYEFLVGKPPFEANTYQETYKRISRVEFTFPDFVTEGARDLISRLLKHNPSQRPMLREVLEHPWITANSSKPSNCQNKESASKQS
Nature of the test: IC50 determination for inhibitors of Aurora A (96 MTP-ELISA). The format is biochemical. The conditions noted are these: His4-tagged full-length Aurora A 250 ng/ml, PKB-GSK2 200 nM, ATP 4 μM, 90 min at room temperature; read-out: IC50 Aurora A kinase inhibition. An excerpt:
IC50 Determination for Inhibitors of Aurora A
Aurora A is a serine threonine kinase involved in spindle assembly and chromosome segregation.
The assay is a typically ELISA-type assay where biotinylated substrate (PKB-GSK2) is phosphorylated. Phosphorylation is detected by peroxidase (POD) labelled polyclonal antibody (PAK<M-Ig>S-IgG-POD) and phosphopeptide monoclonal antibody (Mab) (MAK<P-GSK>M-27E5-IgG). The assay is validated for IC50-determination.
Aurora A-His-4 C-terminally Histidine4 (His4)-tagged Aurora A full-length protein, stock solution 0.7 mg/ml, final conc.: 250 ng/ml
PKB-GSK2 biotinylated peptide derived from human GSK3-alpha sequence (Biotin-SGRARTSSFAEPGG-CONH2), stock solution 600 μM, final conc.: 200 nM
ATP Adenosine-5′-triphosphate 1 mM, diluted in kinase buffer, (Roche Diagnostics GmbH, Cat. No.: 127531-001,), final conc.: 4 μM
Kinase buffer 50 mM TRIS, 10 mM MgCl2, 1 mM DTT, 0.1% Tween 20, pH 7.8
This assay is performed in 96-well format for IC50 determination with 5 samples (each with 8 concentrations by twofold testing), 100 μl incubation volume and the following plate layout:
Step/Action 1. Sample preparation: add 24 μl per well samples (descending sequence) diluted in kinase buffer to assay plate (final conc. for DMSO 1%). 2. Add directly 16 μl Aurora-A-his-4 diluted in kinase buffer to assay plate. 3. Add directly 40 μl per well PKB-GSK2/ATP mixture to assay plate, (final conc.: Aurora A=250 ng/ml, GSK2=200 nM, ATP=4 μM). Negative control: without ATP. 4. Incubate assay plate for exactly 90 min at room temperature. 5. Stop reaction by adding 20 μl EDTA in all wells. 6. Wash assay plate 3× with 200 μl washing buffer per well. 7. Add 100 μl MAK<P-GSK>M27E5-IgG (1:10000) and PAK<M-Ig>S-IgG-POD (1:6000) dissolved in 3% BSA/PBS-T to assay plate per well. 8. Incubate assay plate for 60 min at room temperature. 9. Wash assay plate 3× with 200 μl washing buffer per well 10. Add 100 μl ABTS solution to assay plate per well, incubate for approx. 4 min at RT on MTP shaker. 11. Measure absorption at 405/492 nm. 12. Calculate % inhibition as: (1−(Esample−ENC)/(EPC−ENC))×100 13. Calculate IC50 using a non-linear curve fit (XLfit software (ID Business Solution Ltd., Guilford, Surrey, UK))
For orientation: ELISA stands for enzyme-linked immunosorbent assay.
By IC50 is commonly meant the midpoint of a concentration-inhibition curve. With `Cc1cc(-c2nc3cc4[nH]c(=O)n(C)c4cc3[nH]2)n[nH]1` [Example 10, 3-Methyl-6-(5-methyl-1H-pyrazol-3-yl)-3,5-dihydro-1H-benzo[1,2-d;4,5-d′]diimidazol-2-one], the half-maximal inhibitory concentration (IC50) was in the range of 10 to 500 nM.

With `CC1(C)CC(=O)Nc2cc3nc(-c4cc(C5CC5)[nH]n4)[nH]c3cc21` [Example 25, 2-(5-Cyclopropyl-1H-pyrazol-3-yl)-8,8-dimethyl-1,5,7,8-tetrahydro-imidazo[4,5-g]quinolin-6-one], the 50% inhibitory concentration (IC50) is 10 to 500 nM. On to `CC1(C)C(=O)Nc2cc3nc(-c4cc(C5CC5)[nH]n4)[nH]c3cc21` [Example 21, 2-(5-Cyclopropyl-1H-pyrazol-3-yl)-7,7-dimethyl-5,7-dihydro-1H-imidazo[4,5-f]indol-6-one], for which the IC50 was in the range of 10 to 500 nM.

Another test has as its system HCT 116 cells. Briefly: CellTiter-Glo assay in HCT 116 cells (antiproliferative activity). The following applies: HCT 116 human colon carcinoma cells, 5 days (120 h) incubation, CellTiter-Glo luminescence. The format is cell-based. The text has this: Antiproliferative Activity
CellTiter-Glo™ Assay in HCT 116 Cells
The CellTiter-Glo™ Luminescent Cell Viability Assay (Promega) is a homogeneous method of determining the number of viable cells in culture based on quantitation of the ATP present, which signals the presence of metabolically active cells.
HCT 116 cells (human colon carcinoma, ATCC-No. CCI-247) were cultivated in RPMI 1640 medium with GlutaMAX™ I (Invitrogen, Cat-No. 61870-010), 2.5% Fetal Calf Serum (FCS, Sigma Cat-No. F4135 (FBS)); 100 Units/ml penicillin/100 μg/ml streptomycin (=Pen/Strep from Invitrogen Cat. No. 15140). For the assay the cells were seeded in 384 well plates, 1000 cells per well, in the same medium. The next day the test compounds were added in various concentrations ranging from 30 μM to 0.0015 μM (10 concentrations, 1:3 diluted). After 5 days the CellTiter-Glo™ assay was done according to the instructions of the manufacturer (CellTiter-Glo™ Luminescent Cell Viability Assay, from Promega). In brief: the cell-plate was equilibrated to room temperature for approximately 30 minutes and than the CellTiter-Glo™ reagent was added. The contents were carefully mixed for 15 minutes to induce cell lysis. After 45 minutes the luminescent signal was measured in Victor 2, (scanning multiwell spectrophotometer, Wallac).
Medium: RPMI 1640 with GlutaMAX™ I (Invitrogen, Cat-Nr. 61870), 5% FCS (Sigma Cat.-No. F4135), Pen/Strep (Invitrogen, Cat No. 15140).
HCT116 (ATCC-No. CCI-247): 1000 cells in 60 μl per well of 384 well plate (Greiner 781098, μClear-plate white)
After seeding incubate plates 24 h at 37° C., 5% CO2
2nd. Day: Induction (Treatment with Compounds, 10 Concentrations):
In order to achieve a final concentration of 30 μM as highest concentration 3.5 μl of 10 mM compound stock solution were added directly to 163 μl media. Then step e) of the dilution procedure described below, was followed.
In order to achieve the second highest to the lowest concentrations, a serial dilution with dilution steps of 1:3 was followed according to the procedure (a-e) as described here below: • for the second highest concentration add 10 μl of 10 mM stock solution of compound to 20 μl dimethylsulfoxide (DMSO) • dilute 8×1:3 (always 10 μl to 20 μl DMSO) in this DMSO dilution row (results in 9 wells with concentrations from 3333.3 μM to 0.51 μM) • dilute each concentration 1:47.6 (3.5 μl compound dilution to 163 μl media) • add 10 μl of every concentration to 60 μl media in the cell plate resulting in final concentration of DMSO: 0.3% in every well and resulting in 10 final concentration of compounds ranging from 30 μM to 0.0015 μM. • Each compound is tested in triplicate. • Incubate 120 h (5 days) at 37° C., 5% CO2 Analysis:
Add 30 μl CellTiter-Glo™ Reagent (prepared from CellTiter-Glo™ Buffer and CellTiter-Glo™ Substrate (lyophilized) purchased from Promega) per well, • shake 15 minutes at room temperature • incubate further 45 minutes at room temperature without shaking Measurement:
Victor 2 scanning multiwell spectrophotometer (Wallac), Luminescence mode (0.5 sec/read, 477 nm)
Determine IC50 using a non-linear curve fit (XLfit software (ID Business Solution Ltd., Guilford, Surrey, UK))
On the technique in general: Cellular ATP, detected with luciferase, serves as a proxy for viable cell number.
In turn, `CCN1C(=O)C(C)(C)c2cc3nc(-c4cc(OC)[nH]n4)[nH]c3cc21` [Example 44, 5-Ethyl-2-(5-methoxy-1H-pyrazol-3-yl)-7,7-dimethyl-5,7-dihydro-3H-imidazo[4,5-f]indol-6-one] came in with a 50% inhibitory concentration (IC50) of 100 to 10000 nM. Compound `CC(C)Cc1cc(-c2nc3cc4c(cc3[nH]2)N(C)C(=O)C4(C)C)[nH]n1` [Example 16, 2-(5-Isobutyl-2H-pyrazol-3-yl)-5,7,7-trimethyl-5,7-dihydro-3H-imidazo[4,5-f]indol-6-one] had a half-inhibitory concentration (IC50) of 100 to 10000 nM. Still for that read-out and setting: next, `CCN1C(=O)C(C)(C)c2cc3nc(-c4cc(C)[nH]n4)[nH]c3cc21` [Example 12, 5-Ethyl-7,7-dimethyl-2-(5-methyl-1H-pyrazol-3-yl)-5,7-dihydro-3H-imidazo[4,5-f]indol-6-one]: 100 to 10000 nM; `CC1(C)C(=O)Nc2cc3nc(-c4cc[nH]n4)[nH]c3cc21` [Example 20, 7,7-Dimethyl-2-(1H-pyrazol-3-yl)-5,7-dihydro-1H-imidazo[4,5-f]indol-6-one]: 100 to 10000 nM; `CC(C)Cc1cc(-c2nc3cc4c(cc3[nH]2)NC(=O)C42CCCC2)[nH]n1` [Example 8, 2-(5-Isobutyl-2H-pyrazol-3-yl)-spiro-5,7-dihydro[cyclopentane-1′,7-imidazo[4,5-f]indol]-6(3H)-one]: 100 to 10000 nM.

The compound `CCN1C(=O)C(C)(C)c2cc3nc(-c4cc(C(F)(F)F)[nH]n4)[nH]c3cc21` [Example 39, 5-Ethyl-7,7-dimethyl-2-(5-trifluoromethyl-1H-pyrazol-3-yl)-5,7-dihydro-3H-imidazo[4,5-f]indol-6-one] gave an IC50 of 100 to 10000 nM.

On to `CCN1C(=O)C(C)(C)c2cc3[nH]c(-c4cc(SC)[nH]n4)nc3cc21` [Example 45, 5-Ethyl-7,7-dimethyl-2-(5-methylsulfanyl-1H-pyrazol-3-yl)-5,7-dihydro-1H-imidazo[4,5-f]indol-6-one], for which the IC50 lay within 100 to 10000 nM. On the same count and under the same terms, with `CC(C)c1cc(-c2nc3cc4c(cc3[nH]2)C(C)(C)C(=O)N4)[nH]n1` [Example 22, 2-(5-Isopropyl-2H-pyrazol-3-yl)-7,7-dimethyl-5,7-dihydro-1H-imidazo[4,5-f]indol-6-one] the figure was 100 to 10000 nM; with `CC1(C)C(=O)Nc2cc3nc(-c4cc(C(F)(F)F)n[nH]4)[nH]c3cc21` [Example 38, 7,7-Dimethyl-2-(5-trifluoromethyl-2H-pyrazol-3-yl)-5,7-dihydro-1H-imidazo[4,5-f]indol-6-one], 10000 to 100000 nM. The same measure, in the same setting: with `CCCc1cc(-c2nc3cc4c(cc3[nH]2)N(C)C(=O)C4(C)C)[nH]n1` [Example 14, 5,7,7-Trimethyl-2-(5-propyl-2H-pyrazol-3-yl)-5,7-dihydro-3H-imidazo[4,5-f]indol-6-one] the figure was 1200 nM; with `CN1C(=O)C(C)(C)c2cc3nc(-c4cc(C(F)(F)F)n[nH]4)[nH]c3cc21` [Example 42, 5,7,7-Trimethyl-2-(5-trifluoromethyl-2H-pyrazol-3-yl)-5,7-dihydro-3H-imidazo[4,5-f]indol-6-one], 980 nM. Same read-out and setting: next, `CCN1C(=O)C(C)(C)c2cc3nc(-c4cc[nH]n4)[nH]c3cc21` [Example 32, 5-Ethyl-7,7-dimethyl-2-(1H-pyrazol-3-yl)-5,7-dihydro-3H-imidazo[4,5-f]indol-6-one]: 100 to 10000 nM; `O=C1Nc2cc3nc(-c4cc(C5CC5)[nH]n4)[nH]c3cc2C12CCCC2` [Example 43, 2-(5-Cyclopropyl-2H-pyrazol-3-yl)-spiro-5,7-dihydro[cyclopentane-1′,7-imidazo[4,5-f]indol]-6(3H)-one]: 100 to 10000 nM. As for `CCN1C(=O)C(C)(C)c2cc3nc(-c4cc(CC(C)C)n[nH]4)[nH]c3cc21` [Example 15, 5-Ethyl-2-(5-isobutyl-2H-pyrazol-3-yl)-7,7-dimethyl-5,7-dihydro-3H-imidazo[4,5-f]indol-6-one], the IC50 was in the range of 100 to 10000 nM.

`CCCc1cc(-c2nc3cc4c(cc3[nH]2)N(CC)C(=O)C4(C)C)[nH]n1` [Example 33, 5-Ethyl-7,7-dimethyl-2-(5-propyl-2H-pyrazol-3-yl)-5,7-dihydro-3H-imidazo[4,5-f]indol-6-one; compound with acetic acid]: the IC50 lay in the range of 100 to 10000 nM. Turning to `CN1C(=O)C(C)(C)c2cc3nc(-c4cc[nH]n4)[nH]c3cc21` [Example 30, 5,7,7-Trimethyl-2-(1H-pyrazol-3-yl)-5,7-dihydro-3H-imidazo[4,5-f]indol-6-one], the IC50 was 100 to 10000 nM.
